14 molecules from US12128044B2, “Fused tricyclic compounds and uses thereof in medicine” (SUNSHINE LAKE PHARMA CO., LTD., priority 2018, dated 2024) can be followed below.

The subject of one data set is HBV DNA replication. Kind of data set: Inhibition of HBV virus replication (HBV DNA in supernatant, qPCR) in HepG2.2.15 cells. It is filed as cell-based. Particulars: Hepatitis B virus, 10 days treatment, supernatant day 11, qPCR. An excerpt: (§1) The chromosome of HepG2.2.15 cells integrates a complete HBV genome and stably expresses viral RNA and protein. HepG2.2.15 cells can secrete mature hepatitis B virus particles and HBsAg into culture medium. Virus particles DNA and HBsAg secreted by HepG 2.2.15 cells can be quantified by q-PCR and ELISA, and the effects of compounds on viral replication and HBsAg secretion can be detected.
HepG 2.2.15 cells were inoculated with 8,000 per cell to 96-well cell culture plates in duplicate, and were cultured for 3 days until the cells grew to full-hole. Cells were treated with 4-fold serial dilutions of compounds for 10 days, and were given alternately every other day. The final concentration of DMSO in all pores was 0.5% and DMSO was used as a drug-free control. The supernatant was collected for quantitative detection of HBV DNA on day 11.
Viral genomic DNA was detected by qPCR method, and HBV primers were as follows: • HBV-For-202, […] (SEQ ID NO:1); • HBV-Rev-315, […](SEQ ID NO:2).
The SYBR Premix Ex Taq II-Takara DRR081S kit was used, and 1 μL of cell culture supernatant was used as a template. A standard curve was made using a plasmid containing the HBV genome, and the viral copy number was calculated using the standard curve. Concentration-virus copy number was processed using Graphpad Prism 5 software, and IC50 of Compounds Inhibiting Virus Replication was calculated by Four-parameter Nonlinear Regression Model.
In general terms: In qPCR the cycle at which signal appears reflects the starting amount.

The next data set has as its system HBsAg secretion. The data set can be described thus: Inhibition of HBsAg secretion (ELISA) in HepG2.2.15 cells. It is filed as cell-based. The following applies: Hepatitis B virus, HepG2.2.15, read-out: Hbs Ag IC50.
Source text: as §1
HepG 2.2.15 cells were inoculated with 8,000 per cell to 96-well cell culture plates in duplicate, and were cultured for 3 days until the cells grew to full-hole. Cells were treated with 4-fold serial dilutions of compounds for 10 days, and were given alternately every other day. The final concentration of DMSO in all pores was 0.5% and DMSO was used as a drug-free control. The supernatant was collected for quantitative detection of HBsAg on day 11.
The level of HBsAg secreted by the compound after treatment is detected by ELISA method, and the method uses a hepatitis B surface antigen diagnostic kit (Shanghai Kehua Biotech Co., Ltd. S10910113). 25 μL of the supernatant to be assayed (PBS was diluted to 75 μL) was added to per well of the ELISA plate, positive control and negative control kit were set. ELISA plate was blocked with a cover paper, and incubated at 37° C. for 60 minutes. The ELISAplate was taken out, the seal was teared off, and 50 μL of enzyme conjugate was added to each well. The ELISA plate was oscillated on the shaker for 10 seconds, blocked with a cover paper and incubated at 37° C. for 30 minutes. The ELISA plate was taken out, the seal was teared off, and the ELISA plate was washed 5 times: each time the liquid in the hole was discarded, the washing liquid was filled into the holes, left to stand for 60 seconds, dried, and the liquid residue was patted on the absorbent paper. Immediately after the end of washing, a freshly prepared mixture of Developer A and Developer B was added to all wells: 100 μL per well. The ELISA plate was oscillated on the shaker for 10 seconds, blocked with a cover paper and incubated at 37° C. for 30 minutes. 50 μL of stop solution was added to all wells. Absorbance was read on the Envision plate reader at 450 nm. Concentration-HBsAg OD450 was processed using Graphpad Prism 5 software, and IC50 of Compounds Inhibiting Virus Replication was calculated by Four-parameter Nonlinear Regression Model.

Data set [1] can be described thus: Pharmacokinetic experiments in beagle dogs. It is filed as in vivo. How it is done:
Pharmacokinetic experiments of the compounds of the invention in beagle dogs (Body weight 10-12 kg, male, age 10-12 months, 3 per oral group, 3 per intravenous injection group) Test method:
Beagle was administered orally with 2.5 mg/kg or 5 mg/kg of the compound tested or intravenously injected with 1 mg/kg or 2 mg/kg of the compound tested.
After administration, venous blood was collected at time points (0.083, 0.25, 0.5, 1, 2, 4, 6, 8 and 24 hours) and collected in an anticoagulation tube with EDTA-K2. After liquid-liquid extraction, plasma samples were quantitatively analyzed by multiple reaction ion monitoring (MRM) on a triple quadrupole tandem mass spectrometer. Pharmacokinetic parameters were calculated using a noncompartmental method by WinNonLin 6.3 software.

pIC50: −log10 of the molar value. Some results are limits rather than exact numbers.

A word on the pIC50: it is the IC50 on a negative log10 scale, so that one unit is a factor of ten. The AUC(0-inf) is total exposure, with the tail of the curve extrapolated. Read a low AUC(0-inf) as less exposure. By AUC(0-t) is commonly meant the area under the concentration-time curve up to a stated or last time point. A high value points to more exposure. Usually Cmax stands for the peak of the concentration-time curve. The clearance is a measure of how efficiently the substance is removed, as volume per time.

Consider `COc1cc2c(cc1-c1cnn(C3CCCC3)c1)CN(C(C)C)n1cc(C(=O)O)c(=O)cc1-2` [Example 18, 9-(1-cyclopentyl-1H-pyrazole-4-yl)-6-isopropyl-10-methoxy-2-oxo-6,7-dihydro-2H-pyrido [2,1-a]phthalazine-3-carboxylic acid], for which the figures for the negative-log IC50 (pIC50) with HBV DNA replication and in the data set with HBsAg secretion were 8.64 and 8.43, respectively.

On to `COc1cc2c(cc1-c1cnn(C(C)C)c1)CN(C(C)(C)C)n1cc(C(=O)O)c(=O)cc1-2` [Example 13, 6-(tert-butyl)-9-(1-isopropyl-1H-pyrazol-4-yl)-10-methoxy-2-oxo-6,7-dihydro-2H-pyrido[2,1-a]phthalazine-3-carboxylic acid], for which the pIC50 was 9.15 in the data set on HBV DNA replication and 9.01 with HBsAg secretion.

On to `COc1cc2c(cc1-c1cnn(C3CCC3)c1)CN(C(C)C)n1cc(C(=O)O)c(=O)cc1-2` [Example 17, 9-(1-cyclobutyl-1H-pyrazole-4-yl)-6-isopropyl-10-methoxy-2-oxo-6,7-dihydro-2H-pyrido[2,1-a]phthalazine-3-carboxylic acid], for which the pIC50 in the data set with HBV DNA replication is 8.55; with HBsAg secretion, 8.39.

For the molecule `COc1cc2c(cc1-c1cnn(C3CC3)c1)CN(C(C)C)n1cc(C(=O)O)c(=O)cc1-2` [Example 16, 9-(1-cyclopropyl-1H-pyrazole-4-yl)-6-isopropyl-10-methoxy-2-oxo-6,7-dihydro-2H-pyrido[2,1-a]phthalazine-3-carboxylic acid], the pIC50 is 8.56 with HBV DNA replication and 8.21 in the data set on HBsAg secretion.

In the case of `COc1cc2c(cc1-c1cnn(C3CCC(F)(F)CC3)c1)CN(C(C)C)n1cc(C(=O)O)c(=O)cc1-2` [Example 7, 9-(1-(4,4-Difluorocyclohexyl)-1H-pyrazol-4-yl)-6-isopropyl-10-methoxy-2-oxo-6,7-dihydro-2H-pyrido[2,1-a]phthalazine-3-carboxylic acid], the results for the pIC50 in the data set on HBV DNA replication and in the data set on HBsAg secretion were 8.75 and 8.17, respectively.

For the molecule `COc1cc2c(cc1-c1ccco1)CN(C(C)C)n1cc(C(=O)O)c(=O)cc1-2` [Example 1, 9-(furan-2-yl)-6-isopropyl-10-methoxy-2-oxo-6,7-dihydro-2H-pyrido[2,1-a]phthalazine-3-carb oxylic acid], the results for the negative-log IC50 (pIC50) in the data set with HBV DNA replication and in the data set with HBsAg secretion were 8.57 and 8.37, respectively.

As for `COc1cc2c(cc1-c1cnn(C(C)C)c1)CN(C1CC1)n1cc(C(=O)O)c(=O)cc1-2` [Example 14, 6-cyclopropyl-9-(1-isopropyl-1H-pyrazol-4-yl)-10-methoxy-2-oxo-6,7-dihydro-2H-pyrido[2,1-a]phthalazine-3-carboxylic acid], the pIC50 in the data set on HBV DNA replication and in the data set with HBsAg secretion was over 9.62 each time.

Regarding `COc1cc2c(cc1-c1nccs1)CN(C(C)C)n1cc(C(=O)O)c(=O)cc1-2` [Example 3, 6-isopropyl-10-methoxy-2-oxo-9-(thiazol-2-yl)-6,7-dihydro-2H-pyrido[2,1-a]phthalazine-3-carboxylic acid], the pIC50 in the data set with HBV DNA replication is 8.77; in the data set on HBsAg secretion it was 8.49.

In the case of `COc1cc2c(cc1-c1cnn(C(C)C)c1)CN(C(C)C)n1cc(C(=O)O)c(=O)cc1-2` [Example 4, 6-isopropyl-9-(1-isopropyl-1H-pyrazol-4-yl)-10-methoxy-2-oxo-6,7-dihydro-2H-pyrido[2,1-a]phthalazine-3-carboxylic acid], the pIC50 with HBV DNA replication is 8.42; with HBsAg secretion it was 8.02.

With `COc1cc2c(cc1-c1cccs1)CN(C(C)C)n1cc(C(=O)O)c(=O)cc1-2` [Example 2, 6-isopropyl-10-methoxy-2-oxo-9-(thiophen-2-yl)-6,7-dihydro-21H-pyrido[2,1-a]phthalazine-3-carboxylic acid], the pIC50 is 8.69 in the data set with HBV DNA replication and 8.76 in the data set on HBsAg secretion.

For the molecule `COc1cc2c(cc1-c1cnn(C3CC(C)(C)OC(C)(C)C3)c1)CN(C(C)C)n1cc(C(=O)O)c(=O)cc1-2` [Example 8, 6-isopropyl-10-methoxy-2-oxo-9-(1-(2,2,6,6-tetramethyltetrahydro-2H-pyran-4-yl)-1H-pyrazole-4-yl)-6,7-dihydro-2H-pyrido[2,1-a]phthalazine-3-carboxylic acid], the pIC50 in the data set with HBV DNA replication is 8.20; in the data set on HBsAg secretion, 8.22.

With `COc1cc2c(cc1-c1cnn(C(C)C)c1)CN(C1CCC1)n1cc(C(=O)O)c(=O)cc1-2` [Example 15, 6-cyclobutyl-9-(1-isopropyl-1H-pyrazol-4-yl)-10-methoxy-2-oxo-6,7-dihydro-2H-pyrido[2,1-a]phthalazine-3-carboxylic acid], the pIC50 with HBV DNA replication was 8.68; in the data set with HBsAg secretion, 8.74.

`COc1cc2c(cc1-c1cnn(C(F)F)c1)CN(C(C)C)n1cc(C(=O)O)c(=O)cc1-2` [Example 5, 9-(1-(difluoromethyl)-1H-pyrazole-4-yl)-6-isopropyl-10-methoxy-2-oxo-6,7-dihydro-2H-pyrido [2,1-a]phthalazine-3-carboxylic acid] gave a F in data set [1] (PO 5 mg/kg vs IV 1 mg/kg) of 76.7%. Moreover, in data set [1] (male, dog, plasma, IV, 1 mg/kg), the area under the curve AUC(0-inf) was 17400 ng·h/mL, the AUC(0-t) was determined as 16900 ng·h/mL, the highest level (Cmax) was 2170 ng/mL and the clearance is 0.955 mL/min/kg. Moreover, in data set [1] (male, dog, plasma, PO, 5 mg/kg), the AUC(0-inf) came to 66700 ng·h/mL, the AUC(0-t) was 63300 ng·h/mL and the Cmax is 8710 ng/mL. This molecule also showed a pIC50 in the data set on HBV DNA replication of 8.14. Further, the pIC50 in the data set on HBsAg secretion is 7.84.

In the case of `COc1cc2c(cc1-c1cnn(C3CCOCC3)c1)CN(C(C)C)n1cc(C(=O)O)c(=O)cc1-2` [Example 19, 6-isopropyl-10-methoxy-2-oxo-9-(1-(tetrahydro-2H-pyran-4-yl)-1H-pyrazole-4-yl)-6,7-dihydro-2H-pyrido[2,1-a]phthalazine-3-carboxylic acid], the pIC50 in the data set on HBV DNA replication was 8.40; in the data set on HBsAg secretion it was 8.11.
